Source: patent US20200399238A1, “THERAPEUTIC AURONES” (MIDDLE TENNESSEE STATE UNIVERSITY, priority 2016, published 2020)
Where “and” joins values, the source holds several entries; their conditions need not be identical. Equal values may be shown once. Read-outs that look alike come from different tables or passages of the source.

How the values were obtained:
[1] = system: Trypanosoma brucei brucei 427 cells; assay: T. brucei culture and assay (PrestoBlue); format: cell-based
[2] = system: Leishmania amazonensis promastigotes expressing beta-lactamase; assay: microbe, parasite or virus in culture; format: cell-based
Experimental: Leishmania amazonensis promastigotes expressing beta-lactamase (Buckner et al., Am. J. Trop. Med. Hyg. 72 (2005) 600-605. doi:72/5/600 [pii]) were cultured in RPMI supplemented with 10% fetal calf serum and 1% pen-strep-glut solution (Sigma) at 27° C. Stationary phase promastigotes were adjusted in fresh media, treated with compounds, and incubated at 37° C. At 24 hours, 100 uL of cultures was added to 50 uL of the CellTiter Glo® solution. Luminescence readings were taken with a spectrophotometer and used to calculate inhibition.

[3] = system: rat skeletal muscle cell line, L6; assay: cells; format: cell-based
Experimental: Cells were maintained in high glucose DMEM obtained from HyClone Laboratories (Logan, Utah) and supplemented with FCS and P/S at the same concentrations used for parasite culture. Cells were passaged every 3-4 days and maintained in a 37° C. humidified incubator in an atmosphere of 5% CO2. For assays. cells were detached, counted using a hemocytometer, and adjusted using fresh media to deliver 5×10^3 cells per well (90 μL) in black walled, flat clear bottom 96-well microtiter plates. After 3 h incubation for attachment, compounds diluted in culture medium were added (10 μL) to triplicate wells. Positive controls (cells treated with podophyllotoxin (Sigma, St. Louis, Mo.)), negative controls (untreated cells), solvent controls (DMSO) and media blanks were included on each plate. Following incubation for 71.5 h, 11 μL of PrestoBlue was added into each well.

[4] = system: Trypanosoma cruzi Tulahuen cells expressing beta-galactosidase; assay: T. cruzi intracellular assay (beta-galactosidase, L6 host cells); details: for Selectivity L6/TC-I: Table 3A; for Selectivity L6/TC-I / Selectivity L6/Tc-I: estimated from highest L6 dose tested where no L6 IC50; for IC50: Trypanosoma cruzi, TULAHUEN; for Selectivity L6/Tc-I: Table 3B
[5] = Table 2, L6 IC50 / T. brucei IC50
[6] = Trypanosoma brucei, Table 1, mean of 2(+) independent trials, read-out: IC50 T. brucei
[7] = Leishmania amazonensis, read-out: IC50 L. amaz.
[8] = Table 2, L6 IC50 / L. amazonensis IC50
[9] = Rattus norvegicus, Table 1, read-out: IC50 Toxicity (L6)
[10] = Rattus norvegicus, Table 3A, weighted means of two or more independent trials, read-out: IC50 L6
[11] = Table 2, L6 mammalian cells, read-out: IC50 Toxicity (L6)
[12] = Table 1, intracellular T. cruzi IC50
[13] = Table 2, L6 IC50 / T. cruzi IC50 (intracellular assay)
[14] = read-out: IC50 T. cruzi, Table 1, intracellular assay, mean of 2(+) trials (^c one trial)
[15] = read-out: IC50 T. cruzi, Table 2, intracellular assay, mean of 2(+) independent trials
[16] = read-out: IC50 TC-I, Table 3A, weighted means of two or more independent trials
[17] = Rattus norvegicus, Table 3B, weighted means of two or more independent trials, read-out: IC50 L6
[18] = read-out: IC50 TC-I, Table 3B, weighted means of two or more independent trials
[19] = Trypanosoma brucei, read-out: IC50 TB
[20] = Trypanosoma brucei, read-out: T. brucei IC50 dose

SMILES | IC50 [1, 6] [µM] | IC50 [2, 7] [µM] | IC50 [3, 9] [µM] | IC50 [4, 14] [µM] | IC50 [4, 15] [µM] | other results
COc1ccc(/C=C2\Oc3ccccc3C2=O)cc1 [Aurone 6601, (Z)-2-(4-methoxybenzylidene)benzofuran-3(2H)-one] | 40.3 | 3.3 | > 100 | 10.8 | 10.8 | Selectivity L6/Tb ([1]; Table 1): >2.48; Selectivity L6/Tb [1, 5]: >2.48; Selectivity L6/Tb ([1]; Table 3A, estimated from highest L6 dose tested where no L6 IC50): >2.48; Selectivity L6/La ([2]; Table 1): >30.30; Selectivity L6/La [2, 8]: >30.30; IC50 [3, 10]: > 100 µM; IC50 [3, 11]: > 100 µM; Selectivity L6/Tc [4, 12]: >9.28; Selectivity L6/Tc [4, 13]: >9.28; Selectivity L6/TC-I [4]: >9.28; IC50 [4, 16]: 10.8 µM
O=C1/C(=C/c2cccs2)Oc2ccccc21 [Aurone 2004] | 41.8 | < 1 | > 100 | 13.7 | 13.7 | activity against T. brucei [1]: moderate activity; IC50 [3, 17]: > 100 µM; IC50 [4, 18]: 13.7 µM; IC50 ([4]; read-out: T. cruzi IC50 dose): 13.7 µM
COc1ccc(/C=C2\Oc3cc(O)ccc3C2=O)cc1 [Aurone 6620, (Z)-6-hydroxy-2-(4-methoxybenzylidene)benzofuran-3(2H)-one] | < 1 | < 1 | > 100 | 35.1 | 35.1 | Selectivity L6/Tb ([1]; Table 1): >100; Selectivity L6/Tb [1, 5]: >100; IC50 ([1]; Table 2, mean of 2(+) independent trials, read-out: IC50 T. brucei): < 1 µM; IC50 ([2]; Leishmania amazonensis, read-out: IC50 L. amaz. (footnote c: value obtained from one trial)): < 1 µM; Selectivity L6/La ([2]; Table 1): >100; Selectivity L6/La [2, 8]: >100; IC50 [3, 11]: > 100 µM; Selectivity L6/Tc [4, 12]: >2.85; Selectivity L6/Tc [4, 13]: >2.85
O=C1/C(=C/c2ccco2)Oc2ccccc21 [Aurone 2023] | > 50 | < 1 | > 100 | 6.97 | 6.97 | IC50 [1, 19]: > 50 µM; IC50 [1, 20]: > 50 µM; IC50 [3, 17]: > 100 µM; IC50 [4, 18]: 6.97 µM; IC50 ([4]; read-out: T. cruzi IC50 dose): < 10 µM
O=C1/C(=C/c2ccccc2Cl)Oc2ccccc21 [Aurone 3a, (Z)-2-(2-chlorobenzylidene)benzofuran-3(2H)-one] |  |  |  |  |  | selectivity for T. brucei (L6/Tb) [1]: 21.02; IC50 [1, 20]: 11.3 µM
COc1cc(OC)c2c(c1)O/C(=C\c1cccc([N+](=O)[O-])c1)C2=O [Aurone 7001] | > 50 | 22 | > 100 | > 50 |  | 
COc1cc(OC)c2c(c1)O/C(=C\c1ccc(C)cc1)C2=O [Aurone 7000] | 23.2 |  | 142 | 7.92 | 7.92 | 
O=C1/C(=C/c2ccncc2)Oc2ccccc21 [Aurone 2008] | > 50 | 26.3 | 81.1 | 16.4 |  | IC50 [3, 17]: 81.1 µM; IC50 [4, 18]: 16.4 µM
O=C1/C(=C/c2c[nH]c3ccccc23)Oc2ccccc21 [Aurone 9062, (Z)-2-((1H-indol-3-yl)methylene)benzofuran-3(2H)-one] | 24.8 | 1.66 | 64.7 | 8.53 | 8.53 | IC50 [3, 17]: 64.7 µM; IC50 [4, 18]: 8.53 µM; IC50 ([4]; read-out: T. cruzi IC50 dose): < 10 µM
CC(=O)N1/C(=C\c2ccc[nH]2)C(=O)c2ccccc21 [AA5A] | 26.3 | < 1 | 39.8 | 33.5 | 33.5 | 
O=C1/C(=C/c2ccc(Br)cc2)Oc2c1ccc(O)c2O [Aurone 1005, (Z)-2-(4-bromobenzylidene)-6,7-dihydroxybenzofuran-3(2H)-one] | 48 | 31.1 | > 100 | > 50 |  | 
COC(=O)c1ccc(/C=C2\Oc3ccccc3C2=O)cc1 [Aurone 13, Methyl (Z)-4-((3-oxobenzofuran-2(3H)-ylidene)methyl)benzoate] |  |  |  |  |  | activity against T. brucei [1]: no activity; activity against T. cruzi [4]: no activity
O=C1/C(=C/c2ccc([N+](=O)[O-])cc2)Oc2ccccc21 [Aurone 12b] |  |  |  |  |  | activity against T. brucei [1]: modest activity; activity against T. cruzi [4]: modest activity
CC(=O)N1/C(=C\c2ccccc2O)C(=O)c2ccccc21 [AA3A] | > 50 | < 1 | > 200 | > 50 | > 50 | 
CN(C)c1ccc(/C=C2\Oc3ccccc3C2=O)cc1 [Aurone 9087, (Z)-2-(4-(dimethylamino)benzylidene)benzofuran-3(2H)-one] | 39 | 1.65 | 144 | 5.38 | 5.38 | selectivity for T. cruzi (L6/Tc) [4]: 26.83; IC50 ([4]; read-out: T. cruzi IC50 dose): 5.38 µM
O=C1/C(=C/c2cccc(O)c2)Oc2ccccc21 [Aurone 9252, (Z)-2-(3-hydroxybenzylidene)benzofuran-3(2H)-one] | 34.9 | 1.52 | > 100 | 16.5 | 16.5 | 
O=C1/C(=C/c2ccccc2Cl)Nc2ccccc21 [AA11] | > 50 | 1.86 | > 200 | > 50 |  | IC50 ([4]; read-out: IC50 T. cruzi (footnote c: value obtained from one trial), Table 2, one trial): > 50 µM
O=C1/C(=C/c2ccc(F)cc2)Oc2ccccc21 [Aurone 9002, (Z)-2-(4-fluorobenzylidene)benzofuran-3(2H)-one] | > 50 | 39.3 | > 100 | 15.8 |  | Selectivity L6/La ([2]; Table 1): >2.54; IC50 [3, 10]: > 100 µM; Selectivity L6/Tc [4, 12]: >6.33; Selectivity L6/TC-I [4]: >6.33; IC50 [4, 16]: 15.8 µM
O=C1/C(=C/c2cnc[nH]2)Oc2ccccc21 [Aurone 6621, (Z)-2-((1H-imidazol-5-yl)methylene)benzofuran-3(2H)-one] | 1.56 | > 50 | > 100 | 18.3 | 18.3 | Selectivity L6/Tb ([1]; Table 1): >64.10; Selectivity L6/Tb [1, 5]: >64.10; IC50 [1, 19]: > 50 µM; IC50 ([2]; read-out: IC50 L. amaz., Table 2, mean of 2(+) independent trials): > 50 µM; IC50 [3, 17]: > 100 µM; IC50 [3, 11]: > 100 µM; Selectivity L6/Tc [4, 12]: >5.45; Selectivity L6/Tc [4, 13]: >5.45; Selectivity L6/Tc-I [4]: >5.45; IC50 [4, 18]: 18.3 µM
N#Cc1ccc(/C=C2\Oc3ccccc3C2=O)cc1 [Aurone 7c] |  |  |  |  |  | selectivity for T. brucei (L6/Tb) [1]: 29.49 and 29.46; IC50 [1, 20]: 8.12 µM
COc1cc(/C=C2\Oc3ccccc3C2=O)cc(OC)c1OC [Aurone 2002] | > 50 | 12.6 | > 100 | > 50 |  | 
O=C1/C(=C/c2cccc(Br)c2)Oc2ccccc21 [Aurone 5b, (Z)-2-(3-bromobenzylidene)benzofuran-3(2H)-one] |  |  |  |  |  | IC50 [1, 20]: > 50 µM; IC50 ([4]; read-out: T. cruzi IC50 dose): < 10 µM
O=C1/C(=C/c2ccc(C(F)(F)F)cc2)Oc2ccccc21 [Aurone 6c, (Z)-2-(4-(trifluoromethyl)benzylidene)benzofuran-3(2H)-one] |  |  |  |  |  | IC50 ([4]; read-out: T. cruzi IC50 dose): < 10 µM
O=C1/C(=C/c2cccc(Br)n2)Oc2ccccc21 [Aurone 9260, (Z)-2-((6-bromopyridin-2-yl)methylene)benzofuran-3(2H)-one] | 43.6 |  | > 100 | 14.6 |  | Selectivity L6/Tb ([1]; Table 1): >2.29; Selectivity L6/Tb ([1]; Table 3B, estimated from highest L6 dose tested where no L6 IC50): >4.96; IC50 [1, 20]: 43.6 µM; IC50 [3, 17]: > 100 µM; Selectivity L6/Tc [4, 12]: >6.87; Selectivity L6/Tc-I [4]: >6.87; IC50 [4, 18]: 14.6 µM
O=C1/C(=C/c2ccc(Cl)cc2)Oc2ccccc21 [Aurone 3c, (Z)-2-(4-chlorobenzylidene)benzofuran-3(2H)-one] |  |  |  |  |  | IC50 ([4]; read-out: T. cruzi IC50 dose): < 10 µM
O=C1/C(=C/c2cccc(I)c2)Oc2ccccc21 [Aurone 4b, (Z)-2-(3-iodobenzylidene)benzofuran-3(2H)-one] |  |  |  |  |  | IC50 [1, 20]: > 50 µM; IC50 ([4]; read-out: T. cruzi IC50 dose): < 10 µM
O=C1/C(=C/c2cccc(O)c2)Oc2ccccc21 [Sample 9252] |  |  |  |  |  | IC50 [3, 10]: > 100 µM; IC50 [4, 16]: 16.5 µM
O=C1/C(=C/c2ccc[nH]2)Nc2ccccc21 [AA5] | 49.3 |  | 39.7 | 27.8 |  | 
O=C1/C(=C/c2cccc([N+](=O)[O-])c2)Oc2ccccc21 [Aurone 12a] |  |  |  |  |  | activity against T. brucei [1]: modest activity; activity against T. cruzi [4]: modest activity
